Measurements published in US20160376286A1, “Pyrimidin-4-one derivatives and their use in the tratement, amelioration or prevention of a viral disease” (priority 2011, published 2016).

These compounds were tested on influenza A virus A/Aichi/2/68 (H3N2) (assay: Cytopathic effect (CPE) assay H3N2 in MDCK cells). Conditions: Influenza A virus, H3N2, MDCK, read-out: CPE H3N2 IC50 [μM].
Type: cell-based, influenza A virus (A/Aichi/2/68 (H3N2)); MDCK cells
Method: A possible measure of the […] antiviral activity of the compounds having the formula I or II is the CPE assay disclosed herein. […] In this connection, the reduction in the virus-mediated cytopathic effect (CPE) upon treatment with the compounds was calculated as follows: The cell viability of infected-treated and uninfected-treated cells was determined using an ATP-based cell viability assay (Promega). The response in relative luminescent units (RLU) of infected-untreated samples was subtracted from the response (RLU) of the infected-treated samples and then normalized to the viability of the corresponding uninfected sample resulting in % CPE reduction.
The influenza A virus (IAV) was obtained from American Tissue Culture Collection (A/Aichi/2/68 (H3N2); VR-547). Virus stocks were prepared by propagation of virus on Mardin-Darby canine kidney (MDCK; ATCC CCL-34) cells and infectious titres of virus stocks were determined by the 50% tissue culture infective dose (TCID50) analysis as described in Reed, L. J., and H. Muench. 1938, Am. J. Hyg. 27:493-497.
MDCK cells were seeded in 96-well plates at 2×10^4 cells/well using DMEM/Ham's F-12 (1:1) medium containing 10% foetal bovine serum (FBS), 2 mM L-glutamine and 1% antibiotics (all from PAA). Until infection the cells were incubated for 5 hrs at 37° C., 5.0% CO2 to form a -80% confluent monolayer on the bottom of the well. Each test compound was dissolved in DMSO and generally tested at 25 μM and 250 μM. In those cases where the compounds were not soluble at that concentration they were tested at the highest soluble concentration. The compounds were diluted in infection medium (DMEM/Ham's F-12 (1:1) containing 5 μg/ml trypsin, and 1% antibiotics) for a final plate well DMSO concentration of 1%. The virus stock was diluted in infection medium (DMEM/Ham's F-12 (1:1) containing 5 μg/m1Trypsin, 1% DMSO, and 1% antibiotics) to a theoretical multiplicity of infection (M01) of 0.05.
After removal of the culture medium and one washing step with PBS, virus and compound were added together to the cells. In the wells used for cytotoxicity determination (i.e. in the absence of viral infection), no virus suspension was added. Instead, infection medium was added. Each treatment was conducted in two replicates. After incubation at 37° C., 5% CO2 for 48 hrs, each well was observed microscopically for apparent cytotoxicity, precipitate formation, or other notable abnormalities. Then, cell viability was determined using
CellTiter-Glo luminescent cell viability assay (Promega). The supernatant was removed carefully and 65 μl of the reconstituted reagent were added to each well and incubated with gentle shaking for 15 min at room temperature. Then, 60 μl of the solution was transferred to an opaque plate and luminescence (RLU) was measured using Synergy HT plate reader (Biotek).
Relative cell viability values of uninfected-treated versus uninfected-untreated cells were used to evaluate cytotoxicity of the compounds. Substances with a relative viability below 80% at the tested concentration were regarded as cytotoxic and retested at lower concentrations.
Reduction in the virus-mediated cytopathic effect (CPE) upon treatment with the compounds was calculated as follows: The response (RLU) of infected-untreated samples was subtracted from the response (RLU) of the infected-treated samples and then normalized to the viability of the corresponding uninfected sample resulting in % CPE reduction.

| SMILES | IC50 [µM] |
| --- | --- |
| Cc1c(-c2ccc(F)nc2F)sc2nc(N)[nH]c(=O)c12 [SAV-7621] | 70 |

Same assay, conditions: Influenza A virus, H3N2, MDCK, read-out: CPE H3N2 reduction (%)

| SMILES | inhibition at 50 µM [%] |
| --- | --- |
| O=C(NO)c1cc(NS(=O)(=O)Cc2cccc(Cl)c2)ccn1 | 60.1 |

Same assay, conditions: Influenza A virus, H3N2, MDCK; activity conc 50 (μM); read-out: CPE H3N2 reduction (%)

| SMILES | inhibition at 50 µM [%] |
| --- | --- |
| O=C(NO)c1cc(NS(=O)(=O)Cc2ccccc2Cl)ccn1 | -1.5 |

Same assay, conditions: activity conc 1

| SMILES | CPE H3N2 reduction (%) |
| --- | --- |
| O=C(c1cc(C2=CCCCC2)ccn1)N(O)Cc1ccccc1 | 3.4 |
| CCONC(=O)c1cc(NCc2cccc(OCc3ccccc3)c2)ccn1.Cl | 1.2 |

Same assay, conditions: activity conc 2

| SMILES | CPE H3N2 reduction (%) |
| --- | --- |
| CC(C)(C)OC(=O)N1C2C=C(c3ccnc(C(=O)N(O)Cc4ccccc4)c3)CC1CC2 (centres unmarked) | −5.3% |
| O=C(c1cc(-c2ccc(Cl)cc2)ccn1)N(O)Cc1ccccc1 | −6.7% |
| Cc1c(-c2ccccc2F)sc2nc(N)[nH]c(=O)c12 [SAV-7598] | 21.3 3.7 11.4% |
| CC(C)c1cccc(-c2ccc(C(=O)NO)nc2)c1 | −2.1% |
| Cc1c(-c2ccc(F)cc2F)sc2nc(N)[nH]c(=O)c12 [SAV-7610] | −1.6% |

Same assay, conditions: activity conc 2.5

| SMILES | CPE H3N2 reduction (%) |
| --- | --- |
| Cc1ccc(-c2sc3nc(N)[nH]c(=O)c3c2C)cc1 [SAV-7585] | 28.9 |

Same assay, conditions: activity conc 5

| SMILES | CPE H3N2 reduction (%) |
| --- | --- |
| O=C(c1cc2ccccc2cn1)N(Cc1ccccc1)OCc1ccccc1 | 1.3 |
| CC(C)(C)OC(=O)N1CCC=C(c2ccnc(C(=O)N(O)Cc3ccccc3)c2)C1 | 10.2 |
| NC(=O)c1cccc(-c2ccnc(C(=O)N(O)Cc3ccccc3)c2)c1 | −2.7 |
| O=C(c1ccc(N2CCCC2)cn1)N(Cc1ccccc1)OCc1ccccc1 | −2.7 |
| Cc1c(-c2c(F)ccc(Cl)c2F)sc2nc(N)[nH]c(=O)c12 [SAV-7637] | 1.5 |
| NC(=O)c1ccc(-c2ccnc(C(=O)N(O)Cc3ccccc3)c2)cc1 | −2.5 |
| O=C(c1cc(-c2cccc(CO)c2)ccn1)N(O)Cc1ccccc1 | 7.7 |
| CN(Cc1ccccc1)c1ccnc(C(=O)N(O)Cc2ccccc2)c1 | 3.8 |
| Cc1c(-c2ccc(Cl)c(C(F)(F)F)c2)sc2nc(N)[nH]c(=O)c12 [SAV-7623] | 1.9 |
| CN(C)S(=O)(=O)c1cccc(-c2ccnc(C(=O)N(O)Cc3ccccc3)c2)c1 | −1.8 |
| Cc1c(-c2ccccc2)sc2nc(N)[nH]c(=O)c12 [SAV-7475] | 8.9 |
| O=C(NOCc1ccccc1)c1cc2ccccc2cn1 | −1.5 |
| Cc1c(-c2ccccc2)sc2nc(NC3CCCCC3)[nH]c(=O)c12 [SAV-7640] | −3.2 |
| Cl.O=C(NO)c1cc(N2CCCCC2)ccn1 | −4.1 |

Same assay, conditions: activity conc 12

| SMILES | CPE H3N2 reduction (%) |
| --- | --- |
| O=C(NO)c1ccc(-c2ccccc2)cn1 | 21.7 |

Same assay, conditions: activity conc 15

| SMILES | CPE H3N2 reduction (%) |
| --- | --- |
| Cc1c(-c2ccncc2)sc2nc(N)[nH]c(=O)c12 [SAV-7586] | 81.2 |

Same assay, conditions: activity conc 20

| SMILES | CPE H3N2 reduction (%) |
| --- | --- |
| Cc1c(-c2ccc(Cl)c(C#N)c2)sc2nc(N)[nH]c(=O)c12 [SAV-7602] | 67.9 1.7 35.1% |
| O=C(NOCc1ccccc1)c1ccc(N2CCCC2)cn1 | −8.7% |
| CC(c1ccccc1)c1cc2c(=O)[nH]c(N)nc2s1 (centres unmarked) [SAV-7604] | −4.7 6.4% |
| O=C(c1cc2ccccc2cn1)N(O)CCc1ccccc1 | −1.8% |

Same assay, conditions: activity conc 25

| SMILES | CPE H3N2 reduction (%) |
| --- | --- |
| Cc1c(-c2ccc(F)nc2F)sc2nc(N)[nH]c(=O)c12 [SAV-7621] | 14.3% |
| Cc1c(-c2ccc(Cl)c(C(=O)N(C)C)c2)sc2nc(N)[nH]c(=O)c12 [SAV-7626] | 6.4 −4.6% |

Same assay, conditions: activity conc 50 (μM)

| SMILES | CPE H3N2 reduction (%) |
| --- | --- |
| Cl.O=C(c1cc(NS(=O)(=O)Cc2cccc(C(F)(F)F)c2)ccn1)N(O)Cc1ccccc1 | 22.4% |
| O=C(c1cc(N2CCC3(CC2)OCCO3)ccn1)N(O)Cc1ccccc1 | 9.5% |
| Cl.O=C(NO)c1cc(NS(=O)(=O)Cc2cccc(F)c2)ccn1 | −2.4% |
| Cl.O=C(NO)c1cc(NS(=O)(=O)Cc2ccc(Cl)c(Cl)c2)ccn1 | 53.43% |
| Cc1cccc(C(=O)NOCc2ccccc2)n1 | −2.7% |
| CN(C)C(=O)c1cccc(-c2ccnc(C(=O)N(O)Cc3ccccc3)c2)c1 | 5.3% |
| Cc1c(-c2ccc(Cl)nc2)sc2nc(N)[nH]c(=O)c12 [SAV-7632] | 0.75 53% |
| Cl.O=C(c1cc(NS(=O)(=O)Cc2cccc(Cl)c2)ccn1)N(O)Cc1ccccc1 | 9.5% |
| Nc1nc2sc(-c3ccccc3)cc2c(=O)[nH]1 [SAV-7549] | 65.5 −2.4 8.8% |
| Cl.O=C(c1cc(N2CCC(F)(F)CC2)ccn1)N(O)Cc1ccccc1 | −3.2% |
| O=C(c1cc(N2CCC(N3CCCC3)CC2)ccn1)N(O)Cc1ccccc1 | 10.7% |
| O=C(c1cc2ccccc2cn1)N(O)Cc1ccccc1 | 34.2% |
| CC1(C)C=C(c2ccnc(C(=O)N(O)Cc3ccccc3)c2)CC(C)(C)N1 | 2.8% |
| CC(C)(C)OC(=O)N1CCN(c2ccnc(C(=O)N(O)Cc3ccccc3)c2)CC1 | 34% |
| C[C@@H]1CN(c2ccnc(C(=O)N(O)Cc3ccccc3)c2)C[C@H](C)O1 | 10.5% |
| Cl.O=C(c1cc(NS(=O)(=O)Cc2cccc(F)c2)ccn1)N(O)Cc1ccccc1 | 9.6% |
| O=C(c1cc(N2CCC(N3CCCCC3)CC2)ccn1)N(O)Cc1ccccc1 | 18.8% |
| Cc1c(-c2cccnc2)sc2nc(N)[nH]c(=O)c12 [SAV-7589] | 63.1% |

| SMILES | CPE H3N2 reduction (%) |
| --- | --- |
| O=C(c1cc(C2=CCC3(CC2)OCCO3)ccn1)N(O)Cc1ccccc1 | 5.4% |
| Cc1c(-c2ccccc2)sc2nc(NCCCO)[nH]c(=O)c12 [SAV-7582] | 102.9 4.2 53.1% |
| CC(C)(C)OC(=O)NC1CCN(c2ccnc(C(=O)N(O)Cc3ccccc3)c2)CC1 | 8.3% |
| Cl.O=C(NO)c1cc(NS(=O)(=O)Cc2ccc(F)cc2)ccn1 | −1.4% |
| Cl.O=C(c1cc(N2CCC(F)CC2)ccn1)N(O)Cc1ccccc1 | 34% |
| Cc1c(-c2cccc(C#N)c2F)sc2nc(N)[nH]c(=O)c12 [SAV-7627] | 71.2% |
| O=C(c1cc(N2CCCC(F)(F)C2)ccn1)N(O)Cc1ccccc1 | 8.9% |
| O=C(c1cc(C2=CC3CCC(C2)N3)ccn1)N(O)Cc1ccccc1 (centres unmarked) | 5.49% |
| Nc1ccccc1NC(=O)c1ccc(C(=O)NO)nc1 | −5.53% |
| Cl.O=C(c1cc(NS(=O)(=O)Cc2ccc(F)cc2)ccn1)N(O)Cc1ccccc1 | −1.1% |
| O=C(NO)c1cc(NS(=O)(=O)Cc2ccccc2)ccn1 [drawing 243] | 5.1% |
| O=C(NO)c1ccccn1 | 3.15% |
| O=C(NO)c1cc2ccccc2cn1 | 94.3% |
| O=C(c1cc(NS(=O)(=O)c2ccccc2)ccn1)N(O)Cc1ccccc1 | −5.2% |
| COc1ccc2nc(C(=O)NOCc3ccccc3)ccc2c1 | −1.9% |
| Cc1cccc(C(=O)N(C)OCc2ccccc2)n1 | −2.3% |
| Cc1cc(-c2sc3nc(N)[nH]c(=O)c3c2C)ccc1Cl [SAV-7620] | 57.8% |
